Source: patent US20250163091A1, “FUNCTIONALIZED HUMAN MILK OLIGOSACCHARIDES AND METHODS FOR PRODUCING THEM” (The Regents of the University of California, priority 2022, published 2025)

Assay: Assays for synthesizing FDS-LNTβNHCbz (48) from S-LNF-IIβNHCbz (37)
Assay type: biochemical
Settings: 30° C., analyzed by HRMS at 24 hours and 72 hours
Method: Assays for synthesizing FDS-LNTβNHCbz (48) from S-LNF-IIβNHCbz (37). Assays were carried out at 30° C. in a total volume of 10 μL in Tris-HCl buffer (100 mM, pH 7.5) containing (10 mM), CMP-Neu5Ac (15 mM), MgCl2 (20 mM), MBP-Δ50hST6GALNAC V_ext20-Hiss ([…]), MBP-Δ50hST6GALNAC V_V99M-His6, or MBP-Δ50hST6GALNAC V_V99M_ext20-His6. The reactions were analyzed by HRMS at 24 hours and 72 hours. The formation of FDS-LNTβNHCbz (48) was observed (FIGS. 71A and 71B), and the conversion was around 40-50% after 72 h incubation using MBP-Δ50hST6GALNAC V_ext20-His6.

MBP-Δ50hST6GALNAC V_V99M-His6: V99M mutant of recombinant human ST6GALNAC V with N-terminal MBP and C-terminal His6
formation of FDS-LNTβNHCbz (48): formation of the target product was also observed
